Test results reported in patent publication US8759535B2, “Substituted fused imidazole derivatives, pharmaceutical compositions, and methods of use thereof” (High Point Pharmaceuticals, LLC, priority 2010, dated 2014).
Where a name gives a salt, the structure may show the parent alone.

Tested on: HMOX1
Assay: HMOX1 Protein Assay (immunostaining of HO-1 in NHLF cells, GE InCell 1000)
Assay type: cell-based
Conditions: Homo sapiens, fold change above DMSO treated cells, 16 h; for fold induction at 5 µM: 5 μM compound; for fold induction at 3 µM: 3 μM compound (asterisk)
In short: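 NHLF cells seeded overnight in FGM-2, then exposed to compound or DMSO vehicle for 16 h, fixed, and immunostained for HO-1 with Hoechst nuclear counterstain; imaged on InCell 1000. Values are fold change over DMSO-treated cells, generally at 5 μM (0.8% DMSO), with asterisked entries at 3 μM.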

C[C@@H](O)CNC(=O)CNC(=O)c1ccc2c(c1)nc(Nc1nc3ccc(Cl)cc3s1)n2C [Example 382, 2-(6-Chloro-benzothiazol-2-ylamino)-1-methyl-1H-benzoimidazole-5-carboxylic acid [((R)-2-hydroxy-propylcarbamoyl)-methyl]-amide]
fold induction at 5 µM: 20.6

CSCCNC(=O)c1ccc2c(c1)nc(Nc1nc3ccc(S(C)(=O)=O)cc3s1)n2C [Example 130, 2-(6-Methanesulfonyl-benzothiazol-2-ylamino)-1-methyl-1H-benzimidazole-5-carboxylic acid (2-methylsulfanyl-ethyl)-amide]
fold induction at 5 µM: 5.3

Cn1c(Nc2nc3ccc(Cl)cc3s2)nc2ccc(C(=O)NCCOCCO)cc21 [Example 288, 2-(6-Chloro-benzothiazol-2-ylamino)-3-methyl-3H-benzoimidazole-5-carboxylic acid [2-(2-hydroxy-ethoxy)-ethyl]-amide]
fold induction at 5 µM: 47

Cn1c(Nc2nc3ccc(Cl)cc3s2)nc2cc(C(=O)NC[C@H]3CC[C@H](O)CC3)ccc21 [Example 233, 2-(6-Chloro-benzothiazol-2-ylamino)-1-methyl-1H-benzoimidazole-5-carboxylic acid (trans-4-hydroxy-cyclohexylmethyl)-amide]
fold induction at 3 µM: 28

C[C@@H](CO)CCNC(=O)c1ccc2c(c1)nc(Nc1nc3ccc(OC(F)(F)F)cc3s1)n2C [Example 223, 1-Methyl-2-(6-trifluoromethoxy-benzothiazol-2-ylamino)-1H-benzoimidazole-5-carboxylic acid ((R)-4-hydroxy-3-methyl-butyl)-amide]
fold induction at 5 µM: 44.7

Cn1c(Nc2nc3ccc(OC(F)(F)F)cc3s2)nc2cc(C(=O)NC3CCNC3)ccc21 (stereo not shown) [Example 289, 1-Methyl-2-(6-trifluoromethoxy-benzothiazol-2-ylamino)-1H-benzoimidazole-5-carboxylic acid pyrrolidin-3-ylamide hydrochloride]
fold induction at 5 µM: 44.6

Cn1c(Nc2nc3ccc(Cl)cc3s2)nc2cc(C(=O)N[C@H]3CC[C@H](O)CC3)ccc21 [Example 225, 2-(6-Chloro-benzothiazol-2-ylamino)-1-methyl-1H-benzoimidazole-5-carboxylic acid (trans-4-hydroxy-cyclohexyl)-amide]
fold induction at 3 µM: 17.7

CCOCCNC(=O)c1ccc2c(c1)nc(Nc1nc3ccc(OC(F)(F)F)cc3s1)n2C [Example 4, 1-Methyl-2-(6-trifluoromethoxy-benzothiazol-2-ylamino)-1H-benzoimidazole-5-carboxylic acid (2-ethoxy-ethyl)-amide]
fold induction at 5 µM: 11.9

COC(=O)c1ccc2c(c1)nc(Nc1nc3ccc(OC(F)(F)F)cc3s1)n2C [Example 2, 1-Methyl-2-(6-trifluoromethoxy-benzothiazol-2-ylamino)-1H-benzoimidazole-5-carboxylic acid methyl ester]
fold induction at 5 µM: 6.51

Cn1c(Nc2nc3ccc(OC(F)(F)F)cc3s2)nc2cc(C(=O)N[C@H]3CC[C@H](O)CC3)ccc21 [Example 52, 1-Methyl-2-(6-trifluoromethoxy-benzothiazol-2-ylamino)-1H-benzoimidazole-5-carboxylic acid (trans-4-hydroxy-cyclohexyl)-amide]
fold induction at 5 µM: 10

Cn1c(Nc2nc3cc(F)c(F)cc3s2)nc2cc(C(=O)O)ccc21 [Example 34, 2-(5,6-Difluoro-benzothiazol-2-ylamino)-1-methyl-1H-benzoimidazole-5-carboxylic acid]
fold induction at 5 µM: 15.4

CN1CCC(NC(=O)c2ccc3c(c2)nc(Nc2nc4ccc(Cl)cc4s2)n3C)CC1 [Example 319, 2-(6-Chloro-benzothiazol-2-ylamino)-1-methyl-1H-benzoimidazole-5-carboxylic acid (1-methyl-piperidin-4-yl)-amide]
fold induction at 5 µM: 23.9

Cn1c(Nc2nc3ccc(C(F)(F)F)cc3s2)nc2cc(C(=O)NCC(=O)N3CCC[C@H](O)C3)ccc21 [Example 434, 1-Methyl-2-(6-trifluoromethyl-benzothiazol-2-ylamino)-1H-benzoimidazole-5-carboxylic acid [2-((S)-3-hydroxy-piperidin-1-yl)-2-oxo-ethyl]-amide]
fold induction at 3 µM: 34.6

Cn1c(Nc2nc3ccc(Cl)cc3s2)nc2cc(C(=O)NCCN3CCCCC3)ccc21 [Example 334, 2-(6-Chloro-benzothiazol-2-ylamino)-1-methyl-1H-benzoimidazole-5-carboxylic acid (2-piperidin-1-yl-ethyl)-amide]
fold induction at 3 µM: 13.4

CN(C)C(=O)[C@H](CCCCN)NC(=O)c1ccc2c(c1)nc(Nc1nc3ccc(C(F)(F)F)cc3s1)n2C [Example 369, 1-Methyl-2-(6-trifluoromethyl-benzothiazol-2-ylamino)-1H-benzoimidazole-5-carboxylic acid ((S)-5-amino-1-dimethylcarbamoyl-pentyl)-amide hydrochloride]
fold induction at 3 µM: 22.4

CN(C)CCOCCNC(=O)c1ccc2c(c1)nc(Nc1nc3ccc(Cl)cc3s1)n2C [Example 274, 2-(6-Chloro-benzothiazol-2-ylamino)-1-methyl-1H-benzoimidazole-5-carboxylic acid [2-(2-dimethylamino-ethoxy)-ethyl]-amide]
fold induction at 5 µM: 65.9

Cn1c(Nc2nc3ccc(OC(F)(F)F)cc3s2)nc2cc(C(=O)NCC(=O)N3CCCC(O)C3)ccc21 (stereo not shown) [Example 431, 1-Methyl-2-(6-trifluoromethoxy-benzothiazol-2-ylamino)-1H-benzoimidazole-5-carboxylic acid [2-(3-hydroxy-piperidin-1-yl)-2-oxo-ethyl]-amide]
fold induction at 5 µM: 49.4

CCN(CC)C(=O)CNC(=O)c1ccc2c(c1)nc(Nc1nc3ccc(OC(F)(F)F)cc3s1)n2C [Example 140, 1-Methyl-2-(6-trifluoromethoxy-benzothiazol-2-ylamino)-1H-benzimidazole-5-carboxylic acid diethylcarbamoylmethyl-amide]
fold induction at 5 µM: 19.3

Cn1c(Nc2nc3ccc(OC(F)(F)F)cc3s2)nc2cc(C(=O)NCCC3CCCCO3)ccc21 (stereo not shown) [Example 263, 1-Methyl-2-(6-trifluoromethoxy-benzothiazol-2-ylamino)-1H-benzoimidazole-5-carboxylic acid [2-(tetrahydro-pyran-2-yl)-ethyl]-amide]
fold induction at 5 µM: 19.9

CC(=O)c1ccc2c(c1)nc(Nc1nc3ccc(OC(F)(F)F)cc3s1)n2C [Example 200, 1-[1-Methyl-2-(6-trifluoromethoxy-benzothiazol-2-ylamino)-1H-benzoimidazol-5-yl]-ethanone]
fold induction at 5 µM: 22.9

COCCNC(=O)c1ccc2c(c1)nc(Nc1nc3ccc(F)cc3s1)n2C [Example 125, 2-(6-Fluoro-benzothiazol-2-ylamino)-1-methyl-1H-benzimidazole-5-carboxylic acid (2-methoxy-ethyl)-amide]
fold induction at 5 µM: 25.9

CNC(=O)c1ccc2nc(Nc3nc4ccc(OC(F)(F)F)cc4s3)n(C)c2c1 [Example 38, 3-Methyl-2-(6-trifluoromethoxy-benzothiazol-2-ylamino)-3H-benzoimidazole-5-carboxylic acid methylamide]
fold induction at 5 µM: 18

Cn1c(Nc2nc3ccc(Cl)cc3s2)nc2cc(C(=O)NCCOCCN)ccc21 [Example 269, 2-(6-Chloro-benzothiazol-2-ylamino)-1-methyl-1H-benzoimidazole-5-carboxylic acid [2-(2-amino-ethoxy)-ethyl]-amide]
fold induction at 3 µM: 19.9

CCNC(=O)c1ccc2c(c1)nc(Nc1nc3ccc(OC(F)(F)F)cc3s1)n2CC [Example 156, 1-Ethyl-2-(6-trifluoromethoxy-benzothiazol-2-ylamino)-1H-benzoimidazole-5-carboxylic acid ethylamide]
fold induction at 5 µM: 21

CCNC(=O)c1ccc2c(c1)nc(Nc1nc3cc(F)c(F)cc3s1)n2C [Example 35, 2-(5,6-Difluoro-benzothiazol-2-ylamino)-1-methyl-1H-benzoimidazole-5-carboxylic acid ethylamide]
fold induction at 5 µM: 12.4

Cn1c(Nc2nc3ccc(OC(F)(F)F)cc3s2)nc2cc(C(=O)NCCOCCCO)ccc21 [Example 246, 1-Methyl-2-(6-trifluoromethoxy-benzothiazol-2-ylamino)-1H-benzoimidazole-5-carboxylic acid [2-(3-hydroxy-propoxy)-ethyl]-amide]
fold induction at 5 µM: 76.5

Cn1c(Nc2nc3ccc(OC(F)(F)F)cc3s2)nc2cc(C(=O)NCCCCCO)ccc21 [Example 226, 1-Methyl-2-(6-trifluoromethoxy-benzothiazol-2-ylamino)-1H-benzoimidazole-5-carboxylic acid (5-hydroxy-pentyl)-amide]
fold induction at 5 µM: 23.3

Cn1c(Nc2nc3ccc(C(F)(F)F)cc3s2)nc2cc(C(=O)NCCF)ccc21 [Example 210, 1-Methyl-2-(6-trifluoromethyl-benzothiazol-2-ylamino)-1H-benzoimidazole-5-carboxylic acid (2-fluoro-ethyl)-amide]
fold induction at 3 µM: 29.9

CN(C)S(=O)(=O)N1CCN(C(=O)CNC(=O)c2ccc3c(c2)nc(Nc2nc4ccc(Cl)cc4s2)n3C)CC1 [Example 430, 2-(6-Chloro-benzothiazol-2-ylamino)-1-methyl-1H-benzoimidazole-5-carboxylic acid [2-(4-dimethylsulfamoyl-piperazin-1-yl)-2-oxoethyl]-amide]
fold induction at 5 µM: 22.7

CNC(=O)CNC(=O)c1ccc2c(c1)nc(Nc1nc3ccc(OC(F)(F)F)cc3s1)n2C [Example 139, 1-Methyl-2-(6-trifluoromethoxy-benzothiazol-2-ylamino)-1H-benzimidazole-5-carboxylic acid methylcarbamoylmethyl-amide]
fold induction at 5 µM: 18.8

Cn1c(Nc2nc3ccc(OC(F)(F)F)cc3s2)nc2cc(C(=O)NC[C@@H](O)CO)ccc21 [Example 281, 1-Methyl-2-(6-trifluoromethoxy-benzothiazol-2-ylamino)-1H-benzoimidazole-5-carboxylic acid ((R)-2,3-dihydroxy-propyl)-amide]
fold induction at 5 µM: 35.6
